Results taken from patent publication US8192962B2, “Processes for detecting toxic substances” (Daikin Industries, Ltd., priority 2001, dated 2012).

System: Genes belonging to other category
Test: DNA chip mRNA expression in yeast, genes belonging to other category (Table 9)
Format: cell-based, Saccharomyces cerevisiae S288C
Method in brief: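 Ratios compare mRNA levels in stressed and control S. cerevisiae. Each toxicant was applied for two hours to log-phase cultures at 25° C. at a sub-lethal, growth-inhibiting level; fluorescent cDNA (Cy3- or Cy5-dUTP) was hybridized to a genome-wide yeast chip for over 12 h at 65° C.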

Measured: The level of expressed mRNA in the presence of chemical substance/The level of expressed mRNA in the absence of chemical substance

CCCCCCCCCCCCOS(=O)(=O)[O-].[Na+] [(18), sodium lauryl sulfate]
0.8: yeast gene YCL027W | yeast gene YDR188W | yeast gene YDR259C | yeast gene YEL042W | yeast gene YFL022C | yeast gene YGL150C | yeast gene YGL207W | yeast gene YIL142W
2.5: yeast gene YDR041W | yeast gene YER130C | yeast gene YIL076W | yeast gene YMR110C
1.9: yeast gene YDR055W | yeast gene YDR358W | yeast gene YGL166W | yeast gene YGR135W | yeast gene YKL008C | yeast gene YMR104C | yeast gene YNL036W | yeast gene YOR261C
2.0: yeast gene YBL041W | yeast gene YMR226C | yeast gene YPL154C
5.3: yeast gene YLR327C
1.7: yeast gene YFR050C | yeast gene YGR189C | yeast gene YJL164C | yeast gene YKL013C | yeast gene YOR036W
2.8: yeast gene YBL078C
0.7: yeast gene YDR432W | yeast gene YJL116C | yeast gene YKL096W | yeast gene YMR275C | yeast gene YMR276W
1.6: yeast gene YBR173C | yeast gene YBR286W | yeast gene YDL008W | yeast gene YDR373W | yeast gene YHR004C | yeast gene YJR086W | yeast gene YMR112C | yeast gene YMR314W | yeast gene YOR132W | yeast gene YOR288C
3.2: yeast gene YLR093C
1.8: yeast gene YBL043W | yeast gene YDR085C | yeast gene YGR136W | yeast gene YKL117W
0.6: yeast gene YOR181W
8.5: yeast gene YGR213C
2.4: yeast gene YBR009C
1.3: yeast gene YCL020W | yeast gene YCR071C | yeast gene YDL238C | yeast gene YDR084C | yeast gene YDR388W | yeast gene YGR257C | yeast gene YHR139C | yeast gene YHR142W | yeast gene YKL007W | yeast gene YKL039W | yeast gene YKL041W | yeast gene YLR362W | yeast gene YMR004W | yeast gene YNL006W | yeast gene YOL164W | yeast gene YPR108W
2.9: yeast gene YFR014C | yeast gene YLR120C | yeast gene YPL149W
2.3: yeast gene YDL192W | yeast gene YKL193C | yeast gene YNR010W
0.9: yeast gene YBR177C | yeast gene YBR239C | yeast gene YCR067C | yeast gene YCR088W | yeast gene YDL220C | yeast gene YGL094C | yeast gene YGL229C | yeast gene YJR047C | yeast gene YJR117W | yeast gene YJR119C | yeast gene YJR123W | yeast gene YJR145C | yeast gene YLR391W | yeast gene YLR429W | yeast gene YMR219W | yeast gene YNR069C | yeast gene YOR117W | yeast gene YOR355W
3.6: yeast gene YLR178C
1.1: yeast gene YBL101C | yeast gene YCR038C | yeast gene YDR169C | yeast gene YEL066W | yeast gene YER039C | yeast gene YER066W | yeast gene YGL158W | yeast gene YGR036C | yeast gene YIL050W | yeast gene YIR039C | yeast gene YJL089W | yeast gene YJR050W | yeast gene YNL333W | yeast gene YNL335W | yeast gene YOR003W | yeast gene YOR185C | yeast gene YOR383C | yeast gene YPL089C | yeast gene YPL220W
3.1: yeast gene YNL093W
1.2: yeast gene YBL101W-A | yeast gene YBR076W | yeast gene YBR214W | yeast gene YCR106W | yeast gene YDL065C | yeast gene YDL230W | yeast gene YDR022C | yeast gene YDR125C | yeast gene YDR181C | yeast gene YDR315C | yeast gene YDR392W | yeast gene YER107C | yeast gene YFL043C | yeast gene YGL093W | yeast gene YGL141W | yeast gene YGR048W | yeast gene YGR186W | yeast gene YGR232W | yeast gene YHR163W | yeast gene YJL103C | yeast gene YJR036C | yeast gene YJR058C | yeast gene YKL056C | yeast gene YKL079W | yeast gene YKL171W | yeast gene YLR206W | yeast gene YML130C | yeast gene YMR091C | yeast gene YNL196C | yeast gene YNR006W | yeast gene YOL005C | yeast gene YOL152W | yeast gene YOR133W | yeast gene YOR157C | yeast gene YOR265W | yeast gene YPL001W | yeast gene YPL109C | yeast gene YPL124W | yeast gene YPR066W | yeast gene YPR086W
0.4: yeast gene YJR004C
1.0: yeast gene YAR010C | yeast gene YBL005W-A | yeast gene YDR104C | yeast gene YDR403W | yeast gene YHR027C | yeast gene YHR071W | yeast gene YIL123W | yeast gene YIL140W | yeast gene YJL035C | yeast gene YJL073W | yeast gene YJL210W | yeast gene YKL165C | yeast gene YLR356W | yeast gene YMR094W | yeast gene YNL007C | yeast gene YOR124C
1.4: yeast gene YBR170C | yeast gene YDR115W | yeast gene YDR168W | yeast gene YDR264C | yeast gene YDR481C | yeast gene YFL029C | yeast gene YFR004W | yeast gene YHL024W | yeast gene YJR019C | yeast gene YLR136C | yeast gene YMR297W | yeast gene YOL013C
2.2: yeast gene YLR250W
3.5: yeast gene YCR004C
1.5: yeast gene YDR510W | yeast gene YFL028C | yeast gene YOR198C | yeast gene YOR259C | yeast gene YPR103W
3.8: yeast gene YOL016C
